Experimental data published in paper PMC7747769 (AIChE journal. American Institute of Chemical Engineers, 2019).
pIC50: −log10 of the molar value.

Assays:
[1] = system: DR1; conditions: DR1 and HA306–318 peptide; cited from earlier work
[2] = system: DR1; assay type: binding, human

DNP-PKYVKQNTLKLAT [HA306–318]
pIC50 [1]: ~7.47 | SDS stability of DR1 complex [2]: migrated as an SDS-stable heterodimer
